Patent US10710978B2, “STK4 inhibitors for treatment of hematologic malignancies” (Dana-Farber Cancer Institute, Inc., priority 2015, dated 2020)
Like-named read-outs stand apart in the source and are kept apart here.

What was measured:
Experiment in all cases: KiNativ assay
Assay type in all cases: binding
MARK2 = MARK2 (Homo sapiens (Human), UniProt Q7KZI7); conditions: H929 live cell
Description: (§1) Biochemical IC50s of the compounds of the present disclosure against various kinases were measured in a KiNativ assay. Compounds were screened in duplicate at 10 μM in H929 live cell. IC50 was measured via Mass spectroscopy (MS).

CDK11, CDK8 = conditions: H929 live cell
Description: as §1

MST1, MST2 = conditions: H929 live cell
Description: as §1

SLK = SLK (Homo sapiens (Human), UniProt Q9H2G2); conditions: H929 live cell
Description: as §1

ACK = ACK (Homo sapiens (Human), UniProt Q07912); conditions: H929 live cell
Description: as §1

JAK3 domain2 = JAK3 domain2 (Homo sapiens (Human), UniProt P52333); conditions: H929 live cell
Description: as §1

PIP5K3 = PIP5K3 (Homo sapiens (Human), UniProt Q9Y2I7); conditions: H929 live cell
Description: as §1

p70S6K = p70S6K (Homo sapiens (Human), UniProt P23443); conditions: H929 live cell
Description: as §1

MAST3 = MAST3 (Homo sapiens (Human), UniProt O60307); conditions: H929 live cell
Description: as §1

STLK6 = STLK6 (Homo sapiens (Human), UniProt Q9C0K7); conditions: H929 live cell
Sequence of STLK6 (Q9C0K7 whole entry): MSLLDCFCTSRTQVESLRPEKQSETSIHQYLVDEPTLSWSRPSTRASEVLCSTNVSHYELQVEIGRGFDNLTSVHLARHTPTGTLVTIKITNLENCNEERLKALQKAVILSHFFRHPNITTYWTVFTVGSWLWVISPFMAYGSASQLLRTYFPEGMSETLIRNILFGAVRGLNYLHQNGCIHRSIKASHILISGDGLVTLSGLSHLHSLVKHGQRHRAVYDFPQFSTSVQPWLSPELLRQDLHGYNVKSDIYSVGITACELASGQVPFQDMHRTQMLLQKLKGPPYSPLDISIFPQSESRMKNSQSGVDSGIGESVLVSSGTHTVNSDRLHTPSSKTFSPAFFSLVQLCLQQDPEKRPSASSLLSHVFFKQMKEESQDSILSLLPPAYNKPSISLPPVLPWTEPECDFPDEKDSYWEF
Description: as §1

CDC2 = CDC2 (Homo sapiens (Human), UniProt P06493); conditions: H929 live cell
Description: as §1

TLK2 = TLK2 (Homo sapiens (Human), UniProt Q86UE8); conditions: H929 live cell
Sequence of TLK2 (Q86UE8 whole entry): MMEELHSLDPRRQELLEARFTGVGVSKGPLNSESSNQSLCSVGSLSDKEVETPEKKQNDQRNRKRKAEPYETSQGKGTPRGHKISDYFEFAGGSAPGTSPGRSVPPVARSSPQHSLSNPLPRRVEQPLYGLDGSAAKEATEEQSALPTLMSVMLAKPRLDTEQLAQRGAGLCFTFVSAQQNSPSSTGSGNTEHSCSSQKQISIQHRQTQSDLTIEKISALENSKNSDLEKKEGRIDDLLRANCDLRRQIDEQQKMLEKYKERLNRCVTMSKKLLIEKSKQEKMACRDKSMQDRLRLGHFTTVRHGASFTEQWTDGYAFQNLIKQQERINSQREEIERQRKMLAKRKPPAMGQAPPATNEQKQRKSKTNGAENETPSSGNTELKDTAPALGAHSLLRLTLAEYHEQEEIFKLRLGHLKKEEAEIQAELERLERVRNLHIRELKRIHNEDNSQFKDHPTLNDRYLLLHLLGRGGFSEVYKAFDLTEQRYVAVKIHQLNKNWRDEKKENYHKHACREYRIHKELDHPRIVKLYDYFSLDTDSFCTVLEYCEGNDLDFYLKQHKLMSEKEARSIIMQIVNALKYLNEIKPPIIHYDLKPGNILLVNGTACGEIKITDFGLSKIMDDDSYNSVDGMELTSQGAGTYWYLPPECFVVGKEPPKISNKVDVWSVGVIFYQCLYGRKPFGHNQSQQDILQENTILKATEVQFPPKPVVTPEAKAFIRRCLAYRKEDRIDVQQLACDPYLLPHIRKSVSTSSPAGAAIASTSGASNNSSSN
Description: as §1

NEK1 = NEK1 (Homo sapiens (Human), UniProt Q96PY6); conditions: H929 live cell
Sequence of NEK1 (Q96PY6 whole entry): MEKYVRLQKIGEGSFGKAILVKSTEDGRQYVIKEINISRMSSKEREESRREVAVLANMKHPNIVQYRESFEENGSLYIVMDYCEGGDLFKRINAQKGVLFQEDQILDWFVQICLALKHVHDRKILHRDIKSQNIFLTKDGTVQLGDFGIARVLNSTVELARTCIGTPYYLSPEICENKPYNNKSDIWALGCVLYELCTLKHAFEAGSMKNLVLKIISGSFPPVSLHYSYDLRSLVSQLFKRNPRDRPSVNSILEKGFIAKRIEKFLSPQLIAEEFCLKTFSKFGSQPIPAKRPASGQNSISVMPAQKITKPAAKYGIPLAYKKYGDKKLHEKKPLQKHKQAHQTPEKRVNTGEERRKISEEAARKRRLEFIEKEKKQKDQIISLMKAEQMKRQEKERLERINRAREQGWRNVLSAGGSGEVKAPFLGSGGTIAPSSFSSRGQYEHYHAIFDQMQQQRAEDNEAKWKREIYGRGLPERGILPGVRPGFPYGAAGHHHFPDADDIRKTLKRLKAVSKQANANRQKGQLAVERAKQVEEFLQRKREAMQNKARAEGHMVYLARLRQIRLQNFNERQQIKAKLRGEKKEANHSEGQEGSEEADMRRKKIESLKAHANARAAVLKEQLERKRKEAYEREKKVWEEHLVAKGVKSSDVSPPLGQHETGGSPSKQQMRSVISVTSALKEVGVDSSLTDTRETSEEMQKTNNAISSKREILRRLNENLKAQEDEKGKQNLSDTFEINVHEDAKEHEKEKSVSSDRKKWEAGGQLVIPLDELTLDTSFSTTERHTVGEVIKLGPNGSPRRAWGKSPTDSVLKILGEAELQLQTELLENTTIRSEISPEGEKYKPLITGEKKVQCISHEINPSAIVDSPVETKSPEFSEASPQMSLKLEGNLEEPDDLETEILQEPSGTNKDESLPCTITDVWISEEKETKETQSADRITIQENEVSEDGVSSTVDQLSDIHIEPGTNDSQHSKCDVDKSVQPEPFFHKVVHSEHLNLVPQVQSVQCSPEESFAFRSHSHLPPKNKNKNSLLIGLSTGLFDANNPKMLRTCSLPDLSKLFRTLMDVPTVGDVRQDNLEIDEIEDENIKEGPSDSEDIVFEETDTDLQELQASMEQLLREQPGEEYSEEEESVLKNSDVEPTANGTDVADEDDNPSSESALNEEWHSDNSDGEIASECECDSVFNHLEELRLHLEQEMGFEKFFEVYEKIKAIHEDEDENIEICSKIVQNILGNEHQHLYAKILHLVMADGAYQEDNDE
Description: as §1

PKR = PKR (Homo sapiens (Human), UniProt P19525); conditions: H929 live cell
Description: as §1

IKKe, TBK1 = conditions: H929 live cell
Description: as §1

RSK2 domain2 = RSK2 domain2 (Homo sapiens (Human), UniProt P51812); conditions: H929 live cell
Sequence of RSK2 domain2 (P51812 whole entry, the tested form may be a part): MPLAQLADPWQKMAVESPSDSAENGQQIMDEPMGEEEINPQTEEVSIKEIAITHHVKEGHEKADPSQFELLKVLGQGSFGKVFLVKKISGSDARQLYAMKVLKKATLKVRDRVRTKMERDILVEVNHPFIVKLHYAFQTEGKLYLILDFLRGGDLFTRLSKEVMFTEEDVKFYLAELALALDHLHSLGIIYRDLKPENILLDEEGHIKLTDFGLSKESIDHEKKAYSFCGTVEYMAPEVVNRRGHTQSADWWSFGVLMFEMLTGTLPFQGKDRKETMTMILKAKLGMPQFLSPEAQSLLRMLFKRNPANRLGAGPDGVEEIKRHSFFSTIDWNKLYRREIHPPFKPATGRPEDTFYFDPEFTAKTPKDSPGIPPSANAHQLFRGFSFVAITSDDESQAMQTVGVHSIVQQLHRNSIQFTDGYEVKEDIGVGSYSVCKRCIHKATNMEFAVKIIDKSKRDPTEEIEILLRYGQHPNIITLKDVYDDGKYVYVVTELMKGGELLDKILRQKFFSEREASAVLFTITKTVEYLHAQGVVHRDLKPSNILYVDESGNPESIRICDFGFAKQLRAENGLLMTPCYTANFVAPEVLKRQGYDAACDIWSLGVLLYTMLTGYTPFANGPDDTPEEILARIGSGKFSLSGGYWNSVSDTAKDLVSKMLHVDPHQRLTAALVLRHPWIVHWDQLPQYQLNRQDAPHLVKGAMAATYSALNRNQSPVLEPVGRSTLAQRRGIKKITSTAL
Description: as §1

MARK4 = MARK4 (Homo sapiens (Human), UniProt Q96L34); conditions: H929 live cell
Description: as §1

NDR1 = NDR1 (Homo sapiens (Human), UniProt Q15208); conditions: H929 live cell
Description: as §1

p38d, p38g = conditions: H929 live cell
Description: as §1

[1] = system: RSK1 domain1, RSK2 domain1, RSK3 domain1; conditions: H929 live cell
Description: as §1

PIK3CB = PIK3CB (Homo sapiens (Human), UniProt P42338); conditions: H929 live cell
Sequence of PIK3CB (P42338 whole entry): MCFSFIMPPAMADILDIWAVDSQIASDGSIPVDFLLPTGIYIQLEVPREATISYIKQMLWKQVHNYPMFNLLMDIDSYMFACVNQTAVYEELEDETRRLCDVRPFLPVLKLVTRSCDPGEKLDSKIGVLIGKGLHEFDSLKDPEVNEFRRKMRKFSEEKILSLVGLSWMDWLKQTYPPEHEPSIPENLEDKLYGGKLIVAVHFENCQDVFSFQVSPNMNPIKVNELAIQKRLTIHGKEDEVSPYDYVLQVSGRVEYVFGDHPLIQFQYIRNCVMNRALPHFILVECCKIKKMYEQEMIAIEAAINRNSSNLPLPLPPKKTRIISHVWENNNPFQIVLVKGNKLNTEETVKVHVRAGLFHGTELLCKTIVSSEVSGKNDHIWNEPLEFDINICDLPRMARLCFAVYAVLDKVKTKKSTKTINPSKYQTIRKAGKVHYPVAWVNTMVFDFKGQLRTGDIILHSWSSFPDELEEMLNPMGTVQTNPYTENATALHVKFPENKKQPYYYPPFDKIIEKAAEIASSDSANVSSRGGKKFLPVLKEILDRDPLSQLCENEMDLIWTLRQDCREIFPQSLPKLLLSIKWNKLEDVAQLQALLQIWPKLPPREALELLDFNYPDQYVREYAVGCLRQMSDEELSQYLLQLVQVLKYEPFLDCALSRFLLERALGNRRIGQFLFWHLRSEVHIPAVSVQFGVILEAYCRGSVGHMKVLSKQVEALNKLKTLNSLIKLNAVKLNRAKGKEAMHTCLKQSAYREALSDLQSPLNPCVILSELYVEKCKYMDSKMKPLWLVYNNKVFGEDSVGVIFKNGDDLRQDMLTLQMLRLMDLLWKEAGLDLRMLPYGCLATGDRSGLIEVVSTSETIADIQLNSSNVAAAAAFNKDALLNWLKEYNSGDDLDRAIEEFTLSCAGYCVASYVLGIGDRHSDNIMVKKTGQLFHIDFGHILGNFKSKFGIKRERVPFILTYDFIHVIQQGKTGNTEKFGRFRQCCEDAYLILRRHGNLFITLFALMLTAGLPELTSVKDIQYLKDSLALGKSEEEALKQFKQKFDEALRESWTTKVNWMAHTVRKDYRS
Sequence of PIK3CB (P27986 whole entry partner): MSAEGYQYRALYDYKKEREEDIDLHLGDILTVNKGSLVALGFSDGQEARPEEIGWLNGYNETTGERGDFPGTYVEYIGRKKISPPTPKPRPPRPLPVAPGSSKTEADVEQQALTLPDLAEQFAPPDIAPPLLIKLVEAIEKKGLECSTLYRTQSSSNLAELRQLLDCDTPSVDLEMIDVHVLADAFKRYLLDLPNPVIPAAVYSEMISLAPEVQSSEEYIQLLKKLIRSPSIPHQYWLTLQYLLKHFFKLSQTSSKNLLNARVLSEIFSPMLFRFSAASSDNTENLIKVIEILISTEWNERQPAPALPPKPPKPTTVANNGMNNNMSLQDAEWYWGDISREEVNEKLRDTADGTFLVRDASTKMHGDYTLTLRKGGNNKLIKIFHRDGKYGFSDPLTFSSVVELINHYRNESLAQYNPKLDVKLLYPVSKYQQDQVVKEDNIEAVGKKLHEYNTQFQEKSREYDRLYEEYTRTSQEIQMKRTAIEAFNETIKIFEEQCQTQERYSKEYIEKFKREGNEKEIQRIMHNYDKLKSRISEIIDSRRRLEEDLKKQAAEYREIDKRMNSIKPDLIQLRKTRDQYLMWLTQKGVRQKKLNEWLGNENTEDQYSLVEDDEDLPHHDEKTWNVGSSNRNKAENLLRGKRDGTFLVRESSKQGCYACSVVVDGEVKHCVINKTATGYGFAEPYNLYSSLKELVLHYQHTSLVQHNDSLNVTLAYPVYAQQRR
Description: as §1

NDR2 = NDR2 (Homo sapiens (Human), UniProt Q9Y2H1); conditions: H929 live cell
Description: as §1

PITSLRE = conditions: H929 live cell
Description: as §1

MST2 = MST2 (Homo sapiens (Human), UniProt Q13188); conditions: H929 live cell
Description: as §1

IRAK4 = IRAK4 (Homo sapiens (Human), UniProt Q9NWZ3); conditions: H929 live cell
Description: as §1

CLK2 = CLK2 (Homo sapiens (Human), UniProt P49760); conditions: H929 live cell
Description: as §1

MLK3 = MLK3 (Homo sapiens (Human), UniProt Q16584); conditions: H929 live cell
Description: as §1

Erk1 = Erk1 (Homo sapiens (Human), UniProt P27361); conditions: H929 live cell
Description: as §1

ATR = ATR (Homo sapiens (Human), UniProt Q13535); conditions: H929 live cell, read-out: inhibition (10 μM)
Description: as §1

MST3 = MST3 (Homo sapiens (Human), UniProt Q9Y6E0); conditions: H929 live cell
Description: as §1

MAPKAPK2, MAPKAPK3 = conditions: H929 live cell
Description: as §1

PIP4K2C = PIP4K2C (Homo sapiens (Human), UniProt Q8TBX8); conditions: H929 live cell
Description: as §1

MASTL = MASTL (Homo sapiens (Human), UniProt Q96GX5); conditions: H929 live cell
Description: as §1

PI4KB = PI4KB (Homo sapiens (Human), UniProt Q9UBF8); conditions: H929 live cell
Description: as §1

In the case of Nc1ncc(-c2cccc([N+](=O)[O-])c2F)cc1-c1ccc2c(c1)CCNC2=O [Compound I-9, 6-(2-amino-5-(2-fluoro-3-nitrophenyl)pyridin-3-yl)-3,4-dihydroisoquinolin-1(2H)-one], the inhibition at 10 µM (MARK2; read-out: % inhibition (range)) is reported as 50 to 75%, the inhibition at 10 µM (MARK2; read-out: inhibition (10 μM)) is reported as 63.5% and the “inhibition (10 μM)” value (CDK11, CDK8) is reported as 35.5%. The “% inhibition (range)” value (MST1, MST2; 10 μM) was >90%, the “inhibition (10 μM)” value (MST1, MST2) was 99.0% and the inhibition at 10 µM (SLK; read-out: % inhibition (range)) was > 90%. The inhibition at 10 µM (SLK; read-out: inhibition (10 μM)) was 95.3%, the inhibition at 10 µM (ACK; read-out: % inhibition (range)) was 0% and the inhibition at 10 µM (ACK; read-out: inhibition (10 μM)) was -17.3%. For the same compound, the inhibition at 10 µM (JAK3 domain2; read-out: % inhibition (range)) was 0%, the inhibition at 10 µM (JAK3 domain2; read-out: inhibition (10 μM)) was 2.6% and the inhibition at 10 µM (PIP5K3; read-out: % inhibition (range)) was > 90%. It also gave an inhibition at 10 µM (PIP5K3; read-out: inhibition (10 μM)) of 92%, an inhibition at 10 µM (p70S6K; read-out: % inhibition (range)) of 0% and an inhibition at 10 µM (p70S6K; read-out: inhibition (10 μM)) of -71.5%. It also gave an inhibition at 10 µM (MAST3; read-out: % inhibition (range)) of 0%, an inhibition at 10 µM (MAST3; read-out: inhibition (10 μM)) of 31.2% and an inhibition at 10 µM (STLK6; read-out: % inhibition (range)) of 0%. It also gave an inhibition at 10 µM (STLK6; read-out: inhibition (10 μM)) of -47.7%, an inhibition at 10 µM (CDC2; read-out: % inhibition (range)) of 0% and an inhibition at 10 µM (CDC2; read-out: inhibition (10 μM)) of -24.7%. For the same compound, the inhibition at 10 µM (TLK2; read-out: % inhibition (range)) was 0%, the inhibition at 10 µM (TLK2; read-out: inhibition (10 μM)) was 34% and the inhibition at 10 µM (NEK1; read-out: % inhibition (range)) was 0%. It also gave an inhibition at 10 µM (NEK1; read-out: inhibition (10 μM)) of -34%, an inhibition at 10 µM (PKR; read-out: % inhibition (range)) of 0% and an inhibition at 10 µM (PKR; read-out: inhibition (10 μM)) of -36.7%. The “% inhibition (range)” value (IKKe, TBK1; 10 μM) was 0.0%, the “inhibition (10 μM)” value (IKKe, TBK1) was 21.2% and the inhibition at 10 µM (RSK2 domain2; read-out: % inhibition (range)) was 0%. The inhibition at 10 µM (RSK2 domain2; read-out: inhibition (10 μM)) was -23.2%, the inhibition at 10 µM (MARK4; read-out: % inhibition (range)) was 75 to 90% and the inhibition at 10 µM (MARK4; read-out: inhibition (10 μM)) was > 75%. For the same compound, the inhibition at 10 µM (NDR1; read-out: % inhibition (range)) was 0%, the inhibition at 10 µM (NDR1; read-out: inhibition (10 μM)) was 3.5% and the “% inhibition (range)” value (p38d, p38g; 10 μM) was 0.0%. The “inhibition (10 μM)” value (p38d, p38g) was −11.0%, the “% inhibition (range)” value ([1]; 10 μM) was 50-75% and the “inhibition (10 μM)” value [1] was 58.7%. It also gave an inhibition at 10 µM (PIK3CB; read-out: % inhibition (range)) of 0%, an inhibition at 10 µM (PIK3CB; read-out: inhibition (10 μM)) of 14.6% and an inhibition at 10 µM (NDR2; read-out: % inhibition (range)) of 0%. For the same compound, the inhibition at 10 µM (NDR2; read-out: inhibition (10 μM)) was -9.5%, the “% inhibition (range)” value (PITSLRE; 10 μM) was 35-50% and the “inhibition (10 μM)” value (PITSLRE) was 38.9%. It also gave an inhibition at 10 µM (MST2; read-out: % inhibition (range)) of 75 to 90%, an inhibition at 10 µM (MST2; read-out: inhibition (10 μM)) of 88.9% and an inhibition at 10 µM (IRAK4; read-out: % inhibition (range)) of 0%. The inhibition at 10 µM (IRAK4; read-out: inhibition (10 μM)) was -14.1%, the inhibition at 10 µM (CLK2; read-out: % inhibition (range)) was > 90% and the inhibition at 10 µM (CLK2; read-out:) was > 95%. The inhibition at 10 µM (MLK3; read-out: % inhibition (range)) was 50 to 75%, the inhibition at 10 µM (MLK3; read-out: inhibition (10 μM)) was 62.9% and the inhibition at 10 µM (Erk1; read-out: % inhibition (range)) was 50 to 75%. It also gave an inhibition at 10 µM (Erk1; read-out: inhibition (10 μM)) of 50.5%, an inhibition at 10 µM (ATR) of 37.5% and an inhibition at 10 µM (MST3; read-out: % inhibition (range)) of 35 to 50%. For the same compound, the inhibition at 10 µM (MST3; read-out: inhibition (10 μM)) was 40.4%, the “% inhibition (range)” value (MAPKAPK2, MAPKAPK3; 10 μM) was 0.0% and the “inhibition (10 μM)” value (MAPKAPK2, MAPKAPK3) was 4.0%. For the same compound, the inhibition at 10 µM (PIP4K2C; read-out: % inhibition (range)) was 50 to 75%, the inhibition at 10 µM (PIP4K2C; read-out: inhibition (10 μM)) was 65.7% and the inhibition at 10 µM (MASTL; read-out: % inhibition (range)) was 0%. For the same compound, the inhibition at 10 µM (MASTL; read-out: inhibition (10 μM)) was -18.4%, the inhibition at 10 µM (PI4KB; read-out: % inhibition (range)) was 0% and the inhibition at 10 µM (PI4KB; read-out: inhibition (10 μM)) was -13.8%.
